Test results published in US9493490B1, “Boron-containing small molecules” (Anacor Pharmaceuticals, Inc., priority 2013, dated 2016).
Read-outs that look alike come from different tables or passages of the source.

Experiments:
[1] = tested on: TNF-a secretion from LPS stimulated hPBMC; test: Inhibition of TNF-a secretion from LPS stimulated hPBMC; type: cell-based, human; conditions: LPS for 24 hours
Method: Measurement of the inhibition of cytokine secretion from stimulated human peripheral blood mononuclear cells by drugs was performed as described in Dong C. et al., J Pharmacol Exp Ther. 2013 February; 344(2):436-46; and Akama T. et al., Bioorg Med Chem Lett. 2013 Mar. 15; 23(6):1680-3. Briefly PBMC were incubated with drug, and stimulators; LPS for 24 hours to release TNF-α, and IL-6; PHA for 24 hours, to release IL-2 and IFN-γ, and PHA for 48 hours, to release IL-5 and IL-13. The cell culture supernatants were collected for cytokine determinations using Cisbio HTRF cytokine determination kits. Compounds were prepared using an eight point 1:10 dilution series starting at 10 or 100 uM; the resulting dose-response curves were fit to the four parameter sigmoid equation.

[2] = target: T1, ROCK1 (Homo sapiens (Human), UniProt Q13464); test: ROCK1 phosphorylation activity (Reaction Biology, radiometric); type: biochemical, H. sapiens
Method: (§1) Phosphorylation of activity of ROCK1 and ROCK2 and those of other kinases, AKT1, GRK2, PKA, PKCa and RSK1 were performed by Reaction Biology (Malvern, Pa.) (Ma et al., 2008) The ROCK1 enzyme tested was GST[1-535] ROCK1 (Genbank, NP 005397), ROCK2 was GST[5-554] (Genbank, 3327051). For the kinase assay buffers contained 20 mM Hepes, 10 mM MgCl2, 2 mM DTT, 0.02 mg/mL BSA, 0.1% DMSO, 1 mM EGTA, 0.02% Brij-35, 10 uM ATP, [γP^33]-ATP and for ROCK enzymes, 20 uM long S6-peptide (32 amino acids length). Appropriate substrates and activation was applied for the other kinases tested. Each enzyme was preincubated with test compound for 15 min., and the reaction started by addition of ATP. Samples were incubated at room temperature for 120 min, and applied to P81 ion exchange paper and washed extensively; the radioactive content of the filters were determined. […] Selectivity ratio is the value for PKA/ROCK2.
Target sequence in this assay (Q13464 1-535): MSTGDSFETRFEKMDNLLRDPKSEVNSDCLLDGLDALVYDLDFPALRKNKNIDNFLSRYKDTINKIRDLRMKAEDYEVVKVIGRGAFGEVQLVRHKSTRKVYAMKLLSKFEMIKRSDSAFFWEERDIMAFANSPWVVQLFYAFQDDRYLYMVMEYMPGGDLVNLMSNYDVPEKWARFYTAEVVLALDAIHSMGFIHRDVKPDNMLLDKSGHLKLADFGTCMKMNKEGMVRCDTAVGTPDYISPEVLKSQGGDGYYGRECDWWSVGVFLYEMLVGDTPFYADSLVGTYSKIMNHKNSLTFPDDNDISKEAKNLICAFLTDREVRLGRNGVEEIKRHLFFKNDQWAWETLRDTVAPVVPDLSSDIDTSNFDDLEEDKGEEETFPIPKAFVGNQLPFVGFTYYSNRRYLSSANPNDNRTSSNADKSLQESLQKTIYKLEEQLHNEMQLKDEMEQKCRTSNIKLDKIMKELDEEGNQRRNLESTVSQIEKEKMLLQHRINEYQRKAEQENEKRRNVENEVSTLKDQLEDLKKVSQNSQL

[3] = target: T1, ROCK1; test: Kinase binding panel (KINOMEscan), ROCK1; conditions: table under Kinase Binding Panel
Method: (§2) Kinase inhibition potency was measured using KINOMEscan™ technology across 402 human kinases [Fabian et al., Nat Biotechnol. 2005 March; 23(3):329-36] (DiscoverRx, Inc., (Fremont, Calif.)). The assay is based on a competition binding assay which quantitatively measures the ability of a compound to compete with an immobilized, active-site directed ligand. […] 2008 January; 26(1):127-32; Fabian et al., Nat Biotechnol. 2005 March; 23(3):329-36]. The assay is performed by combining three components: DNA-tagged kinase; immobilized ligand; and a test compound. Binding reactions were assembled by combining, for 1 hr at room temperature, kinases, liganded affinity beads, and test compounds in binding buffer (20% SeaBlock, 0.17×PBS, 0.05% Tween-20, 6 mM DTT). The assay plates were washed and then re-suspended in elution buffer for 30 min. (PBS, 0.05% Tween 20, 0.5 μM non-biotinylated affinity ligand). The kinase concentration in the eluates was measured by qPCR.
Target sequence in this assay (Q13464 whole entry): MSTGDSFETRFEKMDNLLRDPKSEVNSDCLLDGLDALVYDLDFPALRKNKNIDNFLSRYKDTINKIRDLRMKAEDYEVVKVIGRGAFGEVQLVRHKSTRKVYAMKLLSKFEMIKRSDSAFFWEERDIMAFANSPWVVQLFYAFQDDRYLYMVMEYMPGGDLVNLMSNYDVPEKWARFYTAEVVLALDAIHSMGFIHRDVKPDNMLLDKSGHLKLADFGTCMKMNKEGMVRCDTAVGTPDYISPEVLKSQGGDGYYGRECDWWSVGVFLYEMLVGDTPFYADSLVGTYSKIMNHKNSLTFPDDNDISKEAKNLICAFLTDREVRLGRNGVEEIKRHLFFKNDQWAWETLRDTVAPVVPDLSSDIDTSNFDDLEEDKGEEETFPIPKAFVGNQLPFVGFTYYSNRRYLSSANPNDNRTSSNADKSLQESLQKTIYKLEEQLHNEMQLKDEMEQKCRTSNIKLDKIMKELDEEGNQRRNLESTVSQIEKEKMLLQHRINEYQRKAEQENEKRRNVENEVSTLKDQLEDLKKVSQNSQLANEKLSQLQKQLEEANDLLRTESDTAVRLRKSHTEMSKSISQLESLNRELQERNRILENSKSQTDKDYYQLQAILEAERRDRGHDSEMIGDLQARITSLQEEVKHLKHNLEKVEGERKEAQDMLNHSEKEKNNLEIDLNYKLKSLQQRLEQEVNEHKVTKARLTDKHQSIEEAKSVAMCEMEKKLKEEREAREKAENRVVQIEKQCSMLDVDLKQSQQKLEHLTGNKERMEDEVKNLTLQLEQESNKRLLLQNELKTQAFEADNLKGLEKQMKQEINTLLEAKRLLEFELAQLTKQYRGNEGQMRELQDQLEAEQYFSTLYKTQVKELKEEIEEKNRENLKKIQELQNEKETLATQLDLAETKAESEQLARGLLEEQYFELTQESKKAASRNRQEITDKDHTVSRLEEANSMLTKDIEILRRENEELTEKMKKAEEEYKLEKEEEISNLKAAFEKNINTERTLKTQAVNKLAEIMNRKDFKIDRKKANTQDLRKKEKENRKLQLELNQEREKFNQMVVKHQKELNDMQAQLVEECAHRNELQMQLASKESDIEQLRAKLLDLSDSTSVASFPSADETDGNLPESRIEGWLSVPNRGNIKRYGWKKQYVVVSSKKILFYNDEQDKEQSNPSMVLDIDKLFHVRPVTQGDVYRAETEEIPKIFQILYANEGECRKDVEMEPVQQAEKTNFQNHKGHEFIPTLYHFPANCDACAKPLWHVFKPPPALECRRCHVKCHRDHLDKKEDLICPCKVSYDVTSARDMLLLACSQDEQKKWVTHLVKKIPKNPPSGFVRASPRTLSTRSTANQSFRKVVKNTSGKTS

[4] = target: T2, ROCK2 (Homo sapiens (Human), UniProt O75116); test: Kinase binding panel (KINOMEscan), ROCK2; conditions: table under Kinase Binding Panel
Method: as §2
Target sequence in this assay (O75116 whole entry): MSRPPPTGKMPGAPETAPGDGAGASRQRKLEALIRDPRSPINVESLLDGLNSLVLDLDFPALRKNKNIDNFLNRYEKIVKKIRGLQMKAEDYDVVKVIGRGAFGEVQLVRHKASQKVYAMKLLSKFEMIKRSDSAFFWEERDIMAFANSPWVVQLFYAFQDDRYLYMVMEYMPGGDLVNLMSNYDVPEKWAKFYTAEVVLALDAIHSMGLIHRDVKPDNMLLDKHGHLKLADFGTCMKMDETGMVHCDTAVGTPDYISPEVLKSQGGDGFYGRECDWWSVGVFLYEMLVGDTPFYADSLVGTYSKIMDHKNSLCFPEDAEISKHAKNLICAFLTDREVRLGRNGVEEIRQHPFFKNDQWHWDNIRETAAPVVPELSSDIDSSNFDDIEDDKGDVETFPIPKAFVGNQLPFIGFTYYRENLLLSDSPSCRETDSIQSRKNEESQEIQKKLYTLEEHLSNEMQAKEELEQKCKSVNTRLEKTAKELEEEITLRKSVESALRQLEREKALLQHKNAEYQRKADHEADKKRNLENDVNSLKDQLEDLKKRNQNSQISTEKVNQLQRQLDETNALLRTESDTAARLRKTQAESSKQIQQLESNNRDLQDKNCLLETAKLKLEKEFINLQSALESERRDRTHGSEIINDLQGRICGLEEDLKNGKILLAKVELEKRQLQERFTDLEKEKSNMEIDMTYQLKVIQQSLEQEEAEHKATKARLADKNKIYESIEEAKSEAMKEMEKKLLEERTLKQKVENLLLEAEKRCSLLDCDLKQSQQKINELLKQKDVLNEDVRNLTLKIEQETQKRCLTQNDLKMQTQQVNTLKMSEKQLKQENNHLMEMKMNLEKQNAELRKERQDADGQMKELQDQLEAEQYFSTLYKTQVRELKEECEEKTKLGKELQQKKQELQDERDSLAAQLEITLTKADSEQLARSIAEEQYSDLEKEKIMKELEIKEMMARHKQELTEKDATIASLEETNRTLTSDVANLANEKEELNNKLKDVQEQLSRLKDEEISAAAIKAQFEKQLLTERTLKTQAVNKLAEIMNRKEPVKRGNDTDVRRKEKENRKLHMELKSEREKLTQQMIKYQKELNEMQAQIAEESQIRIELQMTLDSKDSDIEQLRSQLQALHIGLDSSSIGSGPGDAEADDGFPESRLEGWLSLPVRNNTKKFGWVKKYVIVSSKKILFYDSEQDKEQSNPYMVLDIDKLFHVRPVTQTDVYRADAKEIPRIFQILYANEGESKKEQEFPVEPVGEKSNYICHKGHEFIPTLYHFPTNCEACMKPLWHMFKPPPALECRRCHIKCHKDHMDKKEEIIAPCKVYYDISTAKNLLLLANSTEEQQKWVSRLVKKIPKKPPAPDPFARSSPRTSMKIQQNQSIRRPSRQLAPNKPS

[5] = target: T2, ROCK2; test: ROCK2 phosphorylation activity (Reaction Biology, radiometric); type: biochemical; conditions: for IC50: 10 uM ATP
Method: as §1
Target sequence in this assay (O75116 5-554): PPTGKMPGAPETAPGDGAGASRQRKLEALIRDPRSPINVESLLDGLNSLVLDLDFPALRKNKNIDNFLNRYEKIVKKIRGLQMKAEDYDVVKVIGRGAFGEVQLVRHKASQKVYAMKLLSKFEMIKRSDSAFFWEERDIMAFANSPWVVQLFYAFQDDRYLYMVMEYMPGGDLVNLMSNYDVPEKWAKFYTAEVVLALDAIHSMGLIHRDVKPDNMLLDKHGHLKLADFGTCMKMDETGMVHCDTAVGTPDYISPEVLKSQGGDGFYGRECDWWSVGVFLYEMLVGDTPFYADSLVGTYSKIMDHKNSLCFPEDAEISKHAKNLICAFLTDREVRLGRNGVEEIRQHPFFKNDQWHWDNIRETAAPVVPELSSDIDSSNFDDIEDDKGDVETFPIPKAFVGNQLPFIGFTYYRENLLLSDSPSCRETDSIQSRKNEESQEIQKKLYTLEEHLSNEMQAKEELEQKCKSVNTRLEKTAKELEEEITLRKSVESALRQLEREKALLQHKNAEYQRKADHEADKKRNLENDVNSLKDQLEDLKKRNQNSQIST

[6] = target: AKT1 (Homo sapiens (Human), UniProt P31749); test: AKT1 phosphorylation activity; type: biochemical; conditions: 10 uM ATP
AKT1, sequence (P31749 whole entry, species assumed): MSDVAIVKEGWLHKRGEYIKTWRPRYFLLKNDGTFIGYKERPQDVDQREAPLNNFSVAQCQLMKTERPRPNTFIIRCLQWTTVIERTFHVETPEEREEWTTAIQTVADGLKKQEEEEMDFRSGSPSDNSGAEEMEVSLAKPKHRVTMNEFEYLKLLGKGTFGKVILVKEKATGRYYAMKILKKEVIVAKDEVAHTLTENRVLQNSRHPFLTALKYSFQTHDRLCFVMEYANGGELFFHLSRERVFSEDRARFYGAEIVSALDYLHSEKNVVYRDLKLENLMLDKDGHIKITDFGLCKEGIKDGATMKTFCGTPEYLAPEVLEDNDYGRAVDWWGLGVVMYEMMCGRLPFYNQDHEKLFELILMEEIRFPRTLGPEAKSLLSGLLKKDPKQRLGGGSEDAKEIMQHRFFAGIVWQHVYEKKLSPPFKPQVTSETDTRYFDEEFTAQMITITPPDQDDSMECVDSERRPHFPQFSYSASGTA
Method: as §1

[7] = target: GRK2 (Homo sapiens (Human), UniProt P25098); test: GRK2 phosphorylation activity; type: biochemical; conditions: 10 uM ATP
GRK2, sequence (P25098 whole entry, species assumed): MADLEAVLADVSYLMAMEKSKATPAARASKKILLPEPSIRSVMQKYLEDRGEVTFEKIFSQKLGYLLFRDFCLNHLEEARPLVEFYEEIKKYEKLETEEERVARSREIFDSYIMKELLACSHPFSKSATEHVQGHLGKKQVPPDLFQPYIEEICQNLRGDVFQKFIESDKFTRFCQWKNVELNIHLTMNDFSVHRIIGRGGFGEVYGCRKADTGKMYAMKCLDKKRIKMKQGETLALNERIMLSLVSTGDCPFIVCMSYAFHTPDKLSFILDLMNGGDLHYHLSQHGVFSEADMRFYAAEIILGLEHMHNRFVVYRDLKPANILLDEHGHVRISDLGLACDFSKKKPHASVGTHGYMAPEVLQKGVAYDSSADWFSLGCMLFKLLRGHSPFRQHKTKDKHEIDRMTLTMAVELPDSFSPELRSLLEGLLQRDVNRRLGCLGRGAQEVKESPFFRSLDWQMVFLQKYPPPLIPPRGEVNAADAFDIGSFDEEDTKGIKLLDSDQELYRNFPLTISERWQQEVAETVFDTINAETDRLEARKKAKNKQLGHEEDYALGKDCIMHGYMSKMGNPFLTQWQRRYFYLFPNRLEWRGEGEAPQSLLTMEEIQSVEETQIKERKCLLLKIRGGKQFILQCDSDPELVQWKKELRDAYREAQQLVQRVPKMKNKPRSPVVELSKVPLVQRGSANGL
Method: as §1

[8] = target: PKA (Homo sapiens (Human), UniProt P17612); test: PKA phosphorylation activity; type: biochemical; conditions: 10 uM ATP
Method: as §1

[9] = target: PKCa (Homo sapiens (Human), UniProt P17252); test: PKCa phosphorylation activity; type: biochemical; conditions: 10 uM ATP
Method: as §1

[10] = target: RSK1 (Homo sapiens (Human), UniProt Q15418); test: RSK1 phosphorylation activity; type: biochemical; conditions: 10 uM ATP
Method: as §1

[11] = tested on: p-MYPT1 phosphorylation in PANC-1 cells; test: Intracellular MYPT1 phosphorylation assay in PANC-1 cells; type: cell-based, H. sapiens; conditions: Homo sapiens
Method: Intracellular MYPT1 phosphorylation assay used the procedures of Garton et al. with minor modifications (Garton et al. Methods Enzymol. 2008; 439:491-500). PANC-1 cells (ACTT, CRL-1469), 18×10^3/well, grown over night in DMEM medium supplemented with 4.5 g/L glucose, L-glutamine, sodium pyruvate and 10% FBS at 37° C. Compounds were applied to the cells for one hour (DMSO final 1%) and the cells were then lysed. Phosphorylated-MYPT1 was detected using plate immobilized anti-MYPT1 antibody (BD Biosciences, cat. 612165), anti-phospo-MYPT1([…]), US Biological, cat. M9925-08) and secondary HRP-conjugated goat anti-rabbit IgG antibody (Jackson Laboratories, cat. 111-035-003), phospho-MYPT1 was quantified using color formed by the tetramethylbenzidine (TMB) HRP substrate.

[12] = read-out: IC50: ROCK1: H. sapiens
[13] = read-out: Inhibition of hROCK1 Phosphorylation [IC50
[14] = PANC-1 cells, .0417 days (compounds applied for one hour), read-out: IC50: Inhib p-MYPT1 Phosphorylation in H. sapiens PANC-1 cells, .0417 days
[15] = 10 uM ATP, read-out: ROCK1 IC50

Compound | IC50 [1] [µM] | IC50 [2, 12] [µM] | IC50 [2, 13] [µM] | IC50 [3] [µM] | IC50 [4] [µM] | SELECTIVITY RATIO ([5]; value for PKA/ROCK2) | IC50 [6] [µM] | IC50 [7] [µM] | IC50 [8] [µM] | IC50 [9] [µM] | IC50 [10] [µM] | IC50 [11, 14] [µM] | S[…] ([5]; value for PKA/ROCK2) | IC50 ([11]; PANC-1, read-out: IC50: Inhib p-MYPT1 Phosphorylation in H. sapiens PANC-1 cells, .0417 days [uM]) [µM] | IC50 ([1]; Homo sapiens) [µM] | IC50 ([1]; Homo sapiens, 24 h) [µM] | IC50 [5] [µM] | IC50 [2, 15] [µM]
Cc1c(Oc2ccc(C(C)N)cc2F)ccc2c1B(O)OC2.Cl (single isomer, unassigned) [F] | 20.5 | 0.54 | 0.54 | 0.54 | 0.51 | 21.51 | 44.1 | > 20 | 11 | > 20 | 17.2 | 56.4 | – | – | – | – | – | –
Cc1c(Oc2ccc(C(C)N)cc2F)ccc2c1B(O)OC2 (single isomer, unassigned) [G] | 5.18 | 0.17 | 0.17 | 0.17 | 0.17 | – | 10.9 | 13.9 | 1.79 | 15.6 | 3.62 | – | 10.40 | 18.7 | – | – | – | –
CCc1c(Oc2ccc(CN)cc2Cl)ccc2c1B(O)OC2 [A, 6-(4-(Aminomethyl)-2-chlorophenoxy)-7-ethylbenzo[c][1,2]oxaborol-1(3H)-ol] | – | – | 0.29 | 0.29 | 0.25 | – | – | – | – | – | – | – | – | – | 3.61 | – | – | –
NCc1ccc(Oc2ccc3c(c2Cl)B(O)OC3)c(Cl)c1 [B, 6-(4-(aminomethyl)-2-chlorophenoxy)-7-chlorobenzo[c][1,2]oxaborol-1(3H)-ol] | – | – | 11 | 23 | 16 | – | – | – | – | – | – | – | – | – | 99 | – | – | –
CC(N)c1ccc(Oc2ccc3c(c2)B(O)OC3)c(F)c1.Cl (stereo not shown) [C, 6-(4-(1-aminoethyl)-2-fluorophenoxy)benzo[c][1,2]oxaborol-1(3H)-ol] | – | 0.54 | 0.54 | 0.54 | 0.45 | >111 | > 30 | > 20 | > 50 | > 20 | > 50 | 48.1 | – | – | – | 12 | – | –
Cc1c(Oc2ccc(CN)cc2F)ccc2c1B(O)OC2 [D, 6-(4-(aminomethyl)-2-fluorophenoxy)-7-methylbenzo[c][1,2]oxaborol-1(3H)-ol] | – | 0.34 | 0.34 | 0.34 | 0.25 | 16.29 | 9.25 | > 20 | 4.06 | > 20 | 5.01 | 18.2 | – | – | – | 12.3 | – | –
Cc1c(Oc2ccc(C(C)N)cc2F)ccc2c1B(O)OC2 (stereo not shown) [E, 6-(4-(1-aminoethyl)-2-fluorophenoxy)-7-methylbenzo[c][1,2]oxaborol-1(3H)-ol] | – | 0.42 | 0.42 | 0.42 | 0.25 | 24.74 | 21.5 | > 20 | 6.09 | > 20 | 8.31 | 39.7 | – | – | – | 5.4 | – | –
Cc1c(Oc2cccc(CNC(=O)OC(C)(C)C)c2F)ccc2c1B(O)OC2 [L, tert-butyl 2-fluoro-3-(1-hydroxy-7-methyl-1,3-dihydrobenzo[c][1,2]oxaborol-6-yloxy)benzylcarbamate] | – | – | 0.72 | 0.72 | 0.664 | 11.87 | > 30 | > 30 | 7.88 | > 30 | 25 | – | – | – | – | – | 0.66 | –
Cc1c(Oc2cccc(CN)c2F)ccc2c1B(O)OC2 [M, 6-(3-(aminomethyl)-2-fluorophenoxy)-7-methylbenzo[c][1,2]oxaborol-1(3H)-ol] | – | – | 0.247 | 0.247 | 0.216 | 15.65 | > 30 | > 30 | 3.38 | > 30 | 5.19 | – | – | – | – | – | 0.22 | 0.25
CC(C)c1c(Oc2ccc(CN)cc2Cl)ccc2c1B(O)OC2 [N, 6-(4-(aminomethyl)-2-chlorophenoxy)-7-isopropylbenzo[c][1,2]oxaborol-1 (3H)-ol] | – | – | 0.596 | 0.0596 | 0.0472 | 1.17 | 4.22 | – | 0.055 | 10.8 | 0.195 | – | – | – | 5.63 | – | 0.047 | 0.06
